# Measurements reported in patent publication US20230257480A1, “ENHANCING BLOOD-BRAIN BARRIER DRUG TRANSPORT BY TARGETING ENDOGENOUS REGULATORS” (THE BOARD OF TRUSTEES OF THE LELAND STANFORD JUNIOR …, priority 2019, published 2023).
# System: aged brain endothelial cells
# Assay: scRNA-seq of aged brain endothelial cells after pharmacologic ALPL inhibition
# Format: in vivo, mice
# From the text: FIG. 21A includes an image and histogram showing holo-transferrin uptake in ALPL+/− cortical vasculature (n=6, paired two-sided t-test). FIG. 21B is an MA plot of differentially expressed genes (FDR<0.05) from aged mice after administration of ALPL inhibitor and vehicle (7,036 capillary cells, n=4 mice pooled per group, MAST with Bonferroni correction). FIG. 21C includes violin plots showing transferrin receptor (Tfrc) expression across vessel segments, following the paradigm in FIG. 21B (1,171 arterial, 7,036 capillary, and 430 venous cells, MAST with Bonferroni correction).
# Cell lysis, first-strand synthesis and cDNA synthesis was performed using the Smart-seq-2 protocol as described previouslyl39-141 in 384-well format, with some modifications. Briefly, brain endothelial cells (CD31+/CD45−) were sorted using SH800S (Sony) sorters on the highest purity setting (‘Single cell’). Plasma-647 fluorescence was recorded for each cell and corresponding sorted well. cDNA synthesis was performed using the Smart-seq2 protocol140-142. After cDNA amplification (23 cycles), concentrations were determined via the PicoGreen quantitation assay. Cells passing quality control were selected through custom scripts and cDNA concentrations normalized to ˜0.2 ng/μL using the TPPLabtech Mosquito HTS and Mantis (Formulatrix) robotic platforms. Libraries were prepared and pooled using the Nextera XT kits (Illumina), following the manufacturer's instructions. Libraries were then sequenced on the Nextseq or Novaseq (Illumina) using 2×75 bp paired-end reads and 2×8 bp index reads with a 200-cycle kit (Illumina, 20012861). Samples were sequenced at an average of 1.5M reads per cell. Raw sequencing files were demultiplexed with bcl2fastq, reads were aligned using STAR, and gene counts made using HTSEQ version 0.6.1p1. Downstream analysis was performed as previously described58, and plasma fluorescence of each cell correlated (Spearman) with gene expression and zonation59.
# Mice were treated with six doses of ALPL inhibitor (613810, Millipore Sigma; 2,5-Dimethoxy-N-(quinolin-3-yl)benzenesulfonamide, Tissue-Nonspecific Alkaline Phosphatase Inhibitor, MLS-0038949; C17H16N2O4S; CAS #496014-13-2) or ‘Vehicle’ control over three days, injected intraperitoneally twice per day (8.75 mg/kg). ‘Vehicle’ treatments consisted of phosphate-buffered saline (PBS) with a matching concentration of DMSO (less than 4% v/v). After the sixth treatment, mice were injected intravenously with 150 μL of Atto 647N-labeled plasma (as above), human holo-transferrin (T4132, Millipore Sigma, 40 mg/kg), transferrin receptor antibody (BE0175, BioXcell, 20 mg/kg), or 3-kDa dextran-FITC (10 mg/kg, Thermo Fisher). Plasma, human holo-transferrin, and transferrin receptor antibody were infused 20 h before sacrifice, while 3-kDa dextran-FITC was given 2 h before sacrifice, as previously described143. After extensive perfusion, CNS cells were isolated as described above. Cell pellets were additionally incubated in Red Blood Cell Lysis Buffer (Millipore Sigma, R7757) for 2 minutes to ensure high CNS cell purity. Brain endothelial cells were distinguished by CD3 I+/CD45− staining and parenchymal cells by CD31−/CD45− staining. […]
smiles,measurement,setting,value
"COc1ccc(OC)c(S(=O)(=O)Nc2cnc3ccccc3c2)c1 [ALPL inhibitor, 2,5-Dimethoxy-N-(quinolin-3-yl)benzenesulfonamide]",TFRC expression on the aged BBB,"aged BBB, upon ALPL inhibition",strongly upregulated
same,ferroportin expression on the aged BBB,"aged BBB, upon ALPL inhibition",strongly upregulated
same,transferrin receptor expression increase in capillaries,"aged mice, capillary cells, after ALPL inhibition",~70%
same,transferrin receptor expression increase in venous cells,"aged mice, venous cells, after ALPL inhibition",~89%
same,"pct, ALPL inh., Fcgrt","receptor gene Fcgrt, ALPL inhibitor-treated group",0.849
same,"% increase, Fcgrt","receptor gene Fcgrt, aged BBB, ALPL inhibition vs control",24.2%
same,"pct, ALPL inh., Lpar6","receptor gene Lpar6, ALPL inhibitor-treated group",0.446
same,"% increase, Lpar6","receptor gene Lpar6, aged BBB, ALPL inhibition vs control",37.0%
same,"pct, ALPL inh., Scarb1","receptor gene Scarb1, ALPL inhibitor-treated group",0.45
same,"% increase, Scarb1","receptor gene Scarb1, aged BBB, ALPL inhibition vs control",11.1%
same,"pct, ALPL inh., Tfrc","receptor gene Tfrc, ALPL inhibitor-treated group",0.723
same,"% increase, Tfrc","receptor gene Tfrc, aged BBB, ALPL inhibition vs control",70.1%
same,"pct, ALPL inh., Slc6a6","transporter gene Slc6a6, ALPL inhibitor-treated group",0.99
same,"% increase, Slc6a6","transporter gene Slc6a6, aged BBB, ALPL inhibition vs control",24.9%
same,"pct, ALPL inh., Slc7a1","transporter gene Slc7a1, ALPL inhibitor-treated group",0.72
same,"% increase, Slc7a1","transporter gene Slc7a1, aged BBB, ALPL inhibition vs control",12.2%
same,"pct, ALPL inh., Slc16a2","transporter gene Slc16a2, ALPL inhibitor-treated group",0.66
same,"% increase, Slc16a2","transporter gene Slc16a2, aged BBB, ALPL inhibition vs control",16.5%
same,"pct, ALPL inh., Slc16a4","transporter gene Slc16a4, ALPL inhibitor-treated group",0.42
same,"% increase, Slc16a4","transporter gene Slc16a4, aged BBB, ALPL inhibition vs control",18.8%
same,"pct, ALPL inh., Slc22a8","transporter gene Slc22a8, ALPL inhibitor-treated group",0.71
same,"% increase, Slc22a8","transporter gene Slc22a8, aged BBB, ALPL inhibition vs control",11.0%
same,"pct, ALPL inh., Slc25a1","transporter gene Slc25a1, ALPL inhibitor-treated group",0.24
same,"% increase, Slc25a1","transporter gene Slc25a1, aged BBB, ALPL inhibition vs control",10.7%
same,"pct, ALPL inh., Slc26a10","transporter gene Slc26a10, ALPL inhibitor-treated group",0.19
same,"% increase, Slc26a10","transporter gene Slc26a10, aged BBB, ALPL inhibition vs control",17.8%
same,"pct, ALPL inh., Slc39a8","transporter gene Slc39a8, ALPL inhibitor-treated group",0.34
same,"% increase, Slc39a8","transporter gene Slc39a8, aged BBB, ALPL inhibition vs control",10.9%
same,"pct, ALPL inh., Slc39a10","transporter gene Slc39a10, ALPL inhibitor-treated group",0.89
same,"% increase, Slc39a10","transporter gene Slc39a10, aged BBB, ALPL inhibition vs control",12.1%
same,"% increase, Slc40a1","transporter gene Slc40a1 (ferroportin), aged BBB, ALPL inhibition vs control",35.0%
same,"pct, ALPL inh., Slc40a1","transporter gene Slc40a1, ALPL inhibitor-treated group",0.62
same,"pct, ALPL inh., Slco1c1","transporter gene Slco1c1, ALPL inhibitor-treated group",0.97
same,"% increase, Slco1c1","transporter gene Slco1c1, aged BBB, ALPL inhibition vs control",15.7%
